Laboratory results published in patent US9187429B2, “Phenyl-tetrahydroisoquinoline derivatives” (Hoffmann-La Roche Inc., priority 2012, dated 2015).

How the values were obtained:
[1] = biological target: T1, CYP11B2 (Homo sapiens (Human), UniProt P19099); experiment: G-402 cellular enzyme assay, human CYP11B2 (aldosterone release); format: cell-based; conditions: G-402 cells expressing human CYP11B2, 1 μM Deoxycorticosterone
Procedure, shortened: (§1)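 G-402 cells stably transfected with human CYP11B2 or CYP11B1, dosed with inhibitor and 1 μM deoxycorticosterone (CYP11B2) or 1 μM deoxycortisol (CYP11B1). Aldosterone or cortisol in supernatant quantified by HTRF; EC50 from 4-parameter MMF fit of steroid level versus inhibitor concentration.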

[2] = biological target: human CYP11B1 (Homo sapiens (Human), UniProt P15538); experiment: G-402 cellular enzyme assay, human CYP11B1 (cortisol release); format: cell-based; conditions: G-402 cells expressing human CYP11B1, 1 μM Deoxycortisol
Procedure, shortened: as §1

[3] = rat CKD model; FAD286 4 weeks of treatment, spironolactone 4 and 8 weeks; cited from earlier work
[4] = biological target: T1, CYP11B2; conditions: patients with primary aldosteronism, oral; cited from earlier work

human CYP11B1, sequence (P15538 25-503): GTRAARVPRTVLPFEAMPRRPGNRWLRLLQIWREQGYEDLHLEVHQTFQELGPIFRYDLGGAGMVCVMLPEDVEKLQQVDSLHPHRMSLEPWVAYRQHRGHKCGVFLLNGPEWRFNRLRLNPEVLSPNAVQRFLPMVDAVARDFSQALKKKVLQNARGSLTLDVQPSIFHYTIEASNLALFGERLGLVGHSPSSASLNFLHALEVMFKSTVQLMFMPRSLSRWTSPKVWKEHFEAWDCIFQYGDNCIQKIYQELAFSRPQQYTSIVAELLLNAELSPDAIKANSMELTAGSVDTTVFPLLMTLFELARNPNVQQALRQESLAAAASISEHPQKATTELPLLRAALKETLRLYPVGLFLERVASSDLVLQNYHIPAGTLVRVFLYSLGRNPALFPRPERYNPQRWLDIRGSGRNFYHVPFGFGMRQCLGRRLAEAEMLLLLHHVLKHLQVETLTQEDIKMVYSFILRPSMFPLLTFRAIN
T1 sequence (P19099 25-503): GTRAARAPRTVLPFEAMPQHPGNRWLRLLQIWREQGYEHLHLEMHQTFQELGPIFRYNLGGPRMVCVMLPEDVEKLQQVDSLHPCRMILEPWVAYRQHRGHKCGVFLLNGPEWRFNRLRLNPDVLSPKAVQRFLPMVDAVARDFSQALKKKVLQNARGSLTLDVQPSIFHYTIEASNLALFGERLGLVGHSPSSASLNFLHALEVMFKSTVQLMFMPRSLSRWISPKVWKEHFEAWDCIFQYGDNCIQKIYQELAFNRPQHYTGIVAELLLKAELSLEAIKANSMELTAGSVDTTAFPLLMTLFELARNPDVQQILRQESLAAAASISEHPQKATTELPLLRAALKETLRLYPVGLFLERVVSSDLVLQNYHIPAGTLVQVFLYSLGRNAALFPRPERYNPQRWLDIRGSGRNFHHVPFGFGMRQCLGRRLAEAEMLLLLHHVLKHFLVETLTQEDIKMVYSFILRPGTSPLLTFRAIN

Row | SMILES | EC50 [1] [nM] | EC50 [2] [nM] | further results
1 | CCC(=O)NC1CCCc2c(-c3ccc(C(F)(F)F)c(F)c3)cncc21 (single isomer, unassigned; (-)) [Example 40, (−)-(S or R)—N-(4-(3-Fluoro-4-(trifluoromethyl)phenyl)-5,6,7,8-tetrahydroisoquinolin-8-yl)propionamide] | 4850 | 32500 | 
2 | C[C@@H](O)C(=O)NC1CCCc2c(-c3ccc(C(F)(F)F)cc3)cncc21 (single isomer, unassigned; (-)) [Example 48, (−)-(R)-2-Hydroxy-N—[(S or R)-4-(4-trifluoromethyl-phenyl)-5,6,7,8-tetrahydro-isoquinolin-8-yl]-propionamide] | 79 | 2100 | 
3 | CCC(=O)NC1CCc2c(-c3ccc(Cl)c(F)c3)cncc21 (single isomer, unassigned; (-)) [Example 56, (−)-(S or R)—N-(4-(4-Chloro-3-fluorophenyl)-6,7-dihydro-5H-cyclopenta[c]pyridin-7-yl)propionamide] | 3210 | 38300 | 
4 | CCC(=O)NC1CCc2c(-c3ccc(C(F)(F)F)cc3F)cncc21 (single isomer, unassigned; (-)) [Example 62, (−)-(S or R)—N-(4-(2-Fluoro-4-(trifluoromethyl)phenyl)-6,7-dihydro-5H-cyclopenta[c]pyridin-7-yl)propionamide] | 1680 | 14700 | 
5 | CCS(=O)(=O)NC1CCc2c(-c3ccc(C(F)(F)F)cc3)cncc21 (single isomer, unassigned; (-)) [Example 65, (−)-(S or R)—N-(4-(4-(Trifluoromethyl)phenyl)-6,7-dihydro-5H-cyclopenta[c]pyridin-7-yl)ethanesulfonamide] | 1630 | 1080 | 
6 | OC1CCCc2c(-c3ccc(C(F)(F)F)cc3)cncc21 (single isomer, unassigned; (-)) [Example 105, (−)-(S or R)-4-(4-(Trifluoromethyl)phenyl)-5,6,7,8-tetrahydroisoquinolin-8-ol] | 107 | 1670 | 
7 | C[C@@H](O)C(=O)NC1CCCc2c(-c3ccc(C(F)(F)F)cc3)cncc21 (stereo partly drawn) [Example 46, (R)-2-Hydroxy-N—[(S,R)-4-(4-trifluoromethyl-phenyl)-5,6,7,8-tetrahydro-isoquinolin-8-yl]-propionamide] | 160 | 3760 | 
8 | C[C@@H](O)C(=O)NC1CCc2c(-c3ccc(C(F)(F)F)cc3)cncc21 (stereo partly drawn) [Example 52, (R)-2-Hydroxy-N—((R,S)-4-(4-(trifluoromethyl)phenyl)-6,7-dihydro-5H-cyclopenta[c]pyridin-7-yl)propanamide] | 203 | 3710 | 
9 | N[C@@H]1CCCc2c(-c3ccc(C(F)(F)F)cc3F)cncc21 [Example 74, (+)-(R)-4-(2-Fluoro-4-(trifluoromethyl)phenyl)-5,6,7,8-tetrahydroisoquinolin-8-amine] | 32.8 | 1220 | 
10 | CC(=O)N[C@@H]1CCCc2c(-c3ccc(C(F)(F)F)cc3F)cncc21 [Example 75, (+)-(R)—N-(4-(2-Fluoro-4-(trifluoromethyl)phenyl)-5,6,7,8-tetrahydroisoquinolin-8-yl)acetamide] | 51.2 | 3540 | 
11 | CS(=O)(=O)N[C@@H]1CCCc2c(-c3ccc(C(F)(F)F)cc3F)cncc21 [Example 76, (+)-(R)—N-(4-(2-Fluoro-4-(trifluoromethyl)phenyl)-5,6,7,8-tetrahydroisoquinolin-8-yl)methanesulfonamide] | 118 | 23200 | 
12 | CC(=O)N[C@@H]1CCCc2c(-c3ccc(C(F)(F)F)cc3)cncc21 [Example 77, (+)-(R)—N-(4-(4-(Trifluoromethyl)phenyl)-5,6,7,8-tetrahydroisoquinolin-8-yl)acetamide] | 58.8 | 2240 | 
13 | CC(=O)N[C@@H]1CCCc2c(-c3ccc(C#N)cc3)cncc21 [Example 78, (+)-(R)—N-(4-(4-Cyanophenyl)-5,6,7,8-tetrahydroisoquinolin-8-yl)acetamide] | 23.3 | 276 | 
14 | CC(=O)N[C@@H]1CCCc2c(-c3ccc(C(F)(F)F)c(F)c3)cncc21 [Example 79, (+)-(R)—N-(4-(3-Fluoro-4-(trifluoromethyl)phenyl)-5,6,7,8-tetrahydroisoquinolin-8-yl)acetamide] | 35.6 | 1780 | 
15 | CCC(=O)N[C@@H]1CCCc2c(-c3ccc(C(F)(F)F)cc3C3CC3)cncc21 [Example 107, (R)—N-(4-(2-Cyclopropyl-4-(trifluoromethyl)phenyl)-5,6,7,8-tetrahydroisoquinolin-8-yl)propionamide] | 964 | 7830 | 
16 | N#Cc1ccc(C2CCCc3cncn32)cc1 (centres unmarked) [FAD286] |  |  | plasma aldosterone [3]: reduced
17 | N#Cc1ccc([C@H]2CCc3cncn32)c(F)c1 [LCI699] |  |  | blood pressure [4]: mildly decreased; circulating aldosterone levels [4]: significantly lower; hypokalemia [4]: corrected
18 | CC(=O)S[C@@H]1CC2=CC(=O)CC[C@]2(C)[C@H]2CC[C@@]3(C)[C@@H](CC[C@@]34CCC(=O)O4)[C@H]12 [spironolactone] |  |  | plasma aldosterone [3]: increased
